Consider 19 compounds from ChEMBL document CHEMBL1144758, “Semisynthetic studies on the manzamine alkaloids” (J Nat Prod, 2008).

In brackets after ≈: the same amount, converted by molar mass. Activity calls are given as the source filed them. No cut-off for these calls is given here.

Test [1] relates to Microglia. Description: Antiinflammatory activity in Escherichia coli lipopolysaccharide-activated rat neonatal microglia assessed as inhibition of oxygen radical at 30 uM. It is filed as functional.
Test [2] concerns Mycobacterium tuberculosis. The test can be described thus: Antibacterial activity against Mycobacterium tuberculosis H37Rv by microplate alamar blue assay. It is filed as functional. Also on record: Activity: concentration or dose not given beside the values. The following applies: for MIC: Mycobacterium tuberculosis, H37Rv.
The test system of test [3] is Microglia. The test can be described thus: Antiinflammatory activity in Escherichia coli lipopolysaccharide-activated rat neonatal microglia assessed as inhibition of eicosanoid thromboxane B2 at 30 uM. It is filed as functional, cell-based.
For a further test, the system named is P388. The test can be described thus: Cytotoxicity against mouse P388 cells. It is filed as functional, cell-based.
In test [4] the test system is Microglia. The test can be described thus: Antiinflammatory activity in Escherichia coli lipopolysaccharide-activated rat neonatal microglia assessed as inhibition of oxygen radical. It is filed as functional, cell-based.
The nature of test [5]: Antiinflammatory activity in Escherichia coli lipopolysaccharide-activated rat neonatal microglia assessed as inhibition of eicosanoid thromboxane B2. It is filed as functional, cell-based.
For test [6], the system named is Mycobacterium tuberculosis. The test can be described thus: Antibacterial activity against Mycobacterium tuberculosis H37Rv at 0.5 ug/mL by microplate alamar blue assay. In kind it is functional.

With `CC(=O)Oc1cccc2c1[nH]c1c([C@@H]3C=C4CC/C=C\CCCCN5CC[C@H]3[C@]3(C5)C(C(C)=O)=C5/C=C\CCCCN5[C@H]43)nccc12`, the outcome with Microglia [1] and with Microglia [3] was inactive. Also, the Activity in test [2] is given as 95%. The compound further returned an MIC in test [2] below 12.5 µg/mL.
On to `CC(=O)C1=C2/C(C(C)=O)=C\CCCCN2[C@H]2C3=C[C@H](c4nccc5c4[nH]c4ccccc45)[C@@H]4CCN(CCCC/C=C\CC3)C[C@]124`, for which, in the test on Microglia [1], the outcome was inactive. Besides, in test [2], the Activity came out at 95% and the MIC was below 12.5 µg/mL. The outcome in the test with Microglia [3] was inactive.
Consider `CC(=O)Oc1cccc2c1[nH]c1c(C3=C[C@]4(OC(C)=O)CC/C=C\CCCCN5CC[C@H]3[C@@]3(C[C@H]6/C=C\CCCCN6[C@@H]34)C5)nccc12`, for which the outcome in the test on Microglia [1] and in the test on Microglia [3] was inactive. Further, the Activity in test [2] is 95%. The MIC in test [2] was below 12.5 µg/mL.
As for `CC(=O)O/C(C)=C1\C[C@@H](OC(C)=O)CCCN2C1=C(C(C)=O)[C@@]13CN4CCCC/C=C\CCC(=C[C@@H](c5nccc6c5[nH]c5c(OC(C)=O)cccc56)[C@H]1CC4)[C@@H]23`, the outcome with Microglia [1] was inactive. In test [2], this compound showed an Activity of 95% and an MIC below 12.5 µg/mL. Also, the result in the test with Microglia [3] was inactive.
As to `CC(=O)Oc1cccc2c1[nH]c1c([C@@H]3C=C4CC/C=C\CCCCN5CC[C@H]3[C@]3(C5)C(C(C)=O)=C5/C(C(C)=O)=C\CCCCN5[C@H]43)nccc12`, the result in the test with Microglia [1] and with Microglia [3] was inactive. The compound further showed an Activity in test [2] of 95%. In test [2], this compound had an MIC below 12.5 µg/mL.
As to `Oc1cccc2c1[nH]c1c(C3=C[C@]4(O)CCCCCCCCN5CC[C@H]3[C@@]3(C[C@H]6CCCCCCN6[C@@H]34)C5)nccc12`, the outcome in the test on Microglia [1] was inactive. In test [2], this compound registered an Activity of 95% and an MIC below 12.5 µg/mL. In addition, the outcome with Microglia [3] was inactive.
For the compound `Oc1cccc2c1[nH]c1c(C3=C[C@@]4(O)CC/C=C\CCCCN5CC[C@@H]3[C@]3(CC6/C=C\CCCCN6[C@H]34)C5)nccc12` (some centres undefined), in the test on Microglia [1], the outcome was inactive. Moreover, in test [2], the Activity is 100% and the MIC was below 6.25 µg/mL. Moreover, the outcome with Microglia [3] was inactive. This compound displayed an IC50 in the test with P388 above 20 µg/mL.
As to `CC(=O)C1=C2/C=C\CCCCN2[C@H]2C3=C[C@H](c4nccc5c4[nH]c4ccccc45)[C@@H]4CCN(CCCC/C=C\CC3)C[C@]124`, the outcome with Microglia [1] and in the test with Microglia [3] was inactive.
In test [2], `Oc1cccc2c1[nH]c1c([C@H]3C[C@@]4(O)CCCCCCCCN5CC[C@@H]3[C@]3(C[C@@H]6CCCCCCN6[C@@H]43)C5)nccc12` [10,11,15,16,32,33-HEXAHYDRO-8-HYDROXYMANZAMINE A] yielded an Activity of 95% and an MIC below 12.5 µg/mL. The result in the test on Microglia [4] was inactive. Besides, the half-inhibitory concentration (IC50) in test [5] turned out to be 1970 nM.
As for `Oc1cccc2c1[nH]c1c(C3=C[C@@]4(O)CCCCCCCCN5CC[C@@H]3[C@]3(C[C@@H]6CCCCCCN6[C@H]34)C5)nccc12` [15,16,32,33-TETRAHYDRO-8-HYDROXYMANZAMINE A], the result in the test with Microglia [1] and in the test on Microglia [3] was inactive. In addition, the Activity in test [2] is 95%. Further, in test [2], the MIC is below 12.5 µg/mL.
Take `Oc1cccc2c1[nH]c1c(C3=C[C@]4(O)CC/C=C\CCCCN5CC[C@H]3[C@@]3(C[C@H]6CC[C@@H](O)CCCN6[C@@H]34)C5)nccc12` [31ALPHA-HYDROXY-32,33-DIHYDRO-8-HYDROXYMANZAMINE A]: the outcome in the test with Microglia [1] and in the test on Microglia [3] was inactive. In test [2], this compound displayed an Activity of 61%.
Regarding `Oc1cccc2c1[nH]c1c(C3=C[C@]4(O)CC/C=C\CCCCN5CC[C@H]3[C@@]3(C[C@H]6CC[C@H](O)CCCN6[C@@H]34)C5)nccc12` [31BETA-HYDROXY-32,33-DIHYDRO-8-HYDROXYMANZAMINE A], the outcome with Microglia [1] and in the test on Microglia [3] was inactive. The same compound returned an Activity in test [2] of 100%. Further, the MIC in test [2] was below 6.25 µg/mL.
In the case of `O[C@]12C=C(c3nccc4c3[nH]c3ccccc34)[C@@H]3CCN(CCCC/C=C\CC1)C[C@@]31C[C@@H]3CCCCCCN3[C@H]12` [32,33-DIHYDROMANZAMINE A], the result with Microglia [1] was inactive. Besides, in test [2], the Activity is reported as 95% and the MIC is below 12.5 µg/mL. In the test with Microglia [3], the outcome was inactive.
For the compound `Oc1cccc2c1[nH]c1c(C3=C[C@]4(O)CC/C=C\CCCCN5CC[C@H]3[C@@]3(C[C@H]6/C=C\CCCCN6[C@@H]34)C5)nccc12` [ENT-8-HYDROXYMENZAMINE A], the Activity in test [2] is recorded as 95%. This compound also came in with an MIC in test [2] below 12.5 µg/mL. Moreover, in the test on Microglia [4], the result was inactive. Further, the concentration for half-maximal inhibition (IC50) in the test on P388 turned out to be 0.25 µg/mL (≈ 0.443 µM); in test [5] it was 250 nM.
As to `O[C@]12C=C(c3nccc4c3[nH]c3ccccc34)[C@@H]3CCN(CCCC/C=C\CC1)C[C@@]31C[C@@H]3/C=C\CCCCN3[C@H]12` [MANZAMINE A], in test [2], the Activity is reported as 95% and the minimum inhibitory concentration (MIC) was below 12.5 µg/mL. In addition, the result in the test on Microglia [4] was inactive. The 50% inhibitory concentration (IC50) in test [5] was below 100 nM.
On to `O=C1CCCN2[C@@H](CC1)C[C@]13CN4CCCC/C=C\CC[C@](O)(C=C(c5nccc6c5[nH]c5c(O)cccc56)C1CC4)[C@H]23` (some centres undefined) [MANZAMINE F], for which the outcome in the test with Microglia [1] was inactive. In test [2], the Activity came to 95% and the MIC is below 12.5 µg/mL. Moreover, the result in the test with Microglia [3] was inactive.
Regarding `O[C@@H]1CCCN2CC[C@@H]1O[C@@]13CC[C@@H](OC[C@]45CN6CCCC/C=C\CC[C@](O)(C=C(c7nccc8c7[nH]c7ccccc78)[C@@H]4CC6)[C@H]25)[C@@H](O)CCN1[C@@H]1[C@]2(CN4CCCC/C=C\CC[C@]1(O)C=C(c1nccc5c1[nH]c1ccccc15)[C@@H]2CC4)C3` [NEO-KAULUAMINE], in test [2], the Activity is reported as 44%.
`CO[C@H]1/C=C/O[C@@]2(C)Oc3c(C)c(O)c4c(O)c(c(/C=N/N5CCN(C)CC5)c(O)c4c3C2=O)NC(=O)/C(C)=C\C=C\[C@H](C)[C@H](O)[C@@H](C)[C@@H](O)[C@@H](C)[C@H](OC(C)=O)[C@@H]1C` [RIFAMPIN] displayed an Activity in test [6] of 100%.
Regarding `O[C@]12C=C(c3nccc4c3[nH]c3ccccc34)[C@@H]3CCN(CCCCCCCC1)C[C@@]31C[C@@H]3CCCCCCN3[C@H]12` [TETRAHYDROMANZAMINE A], the result with Microglia [1] and with Microglia [3] was inactive. The Activity in test [2] is given as 95%. Besides, in test [2], the MIC is below 12.5 µg/mL.
